{"source": "patent US10066272B2", "about": "“Human homeobox gene ventx and macrophage terminal differentiation and activation, compositions and methods thereof” (priority 2011, dated 2018)", "tested_on": "allogenic naive CD4+ T cells", "test": "Mixed lymphocyte reaction", "type": "cell-based, human", "details": "irradiated transfected macrophages (FIG. 8F)", "experimental": "Macrophages were generated through incubation of freshly isolated monocytes with 100 ng/mL M-CSF for 4 days. These macrophages were then transfected with siGFP or siVentX, respectively, and further cultured in RPMI 1640 medium for additional 3 days. Thereafter, cells were exposed to 1 μg/mL LPS plus 20 ng/mL γ-IFN for 6 hours. (A) Surface staining of CD40, CD80, CD86 and HLA-DR and intracellular staining of TNF-α and IL1-β were analyzed by flow cytometry. (B) Secreted TNF-α, IL1-β and IL12p70 from culture supernatants were determined with ELISA kits. (C) Reactive oxygen species (ROS) from siGFP or siVentX transfected macrophages were analyzed with fluorescence microscope (left) and flow cytometry (middle). […] (D) Nitrate level from siGFP and siVentX transfected macrophages. Data represent mean+SD of three different experiments. (E) Phagocytosis of siGFP and siVentX transfected macrophage. Red histogram represents transfection with siGFP; green histogram represents transfection with siVentX. Left panel: cells were incubated on ice; right panel: cells were incubated at 37° C. (F) Effects of VentX knockdown on mixed lymphocyte reaction. Irradiated macrophages that had been transfected with siGFP or siVentX were utilized to stimulate allogenic naïve CD4 T cells proliferation. The proliferation rates were represented by counts per minute (CPM). […]"}
{"substance": "siVentX: VentX siRNA, forward 5′-UUCAGAAUCGCCGCAUGAAACACAAACGG-3′ (SEQ ID NO:4), reverse SEQ ID NO:5 (antisense CCGUUUGUGUUUCAUGCGGCGAUUCUGAA; listed as RNA, chemistry not given here)", "values": [{"measurement": "stimulation of allogeneic T cells proliferation", "result": "less potent"}]}
